Assay results as given in ChEMBL document CHEMBL1909046, “DrugMatrix in vitro pharmacology data”.

What was measured:
[1] = target: T1, Progesterone receptor (Bos taurus, UniProt Q690N0); experiment: DRUGMATRIX: Progesterone radioligand binding (ligand: [3H] R-5020); type: tissue-based, Uterus; conditions: Not Active = under 50% inhibition at 10 µM
T1 sequence (Q690N0 whole entry): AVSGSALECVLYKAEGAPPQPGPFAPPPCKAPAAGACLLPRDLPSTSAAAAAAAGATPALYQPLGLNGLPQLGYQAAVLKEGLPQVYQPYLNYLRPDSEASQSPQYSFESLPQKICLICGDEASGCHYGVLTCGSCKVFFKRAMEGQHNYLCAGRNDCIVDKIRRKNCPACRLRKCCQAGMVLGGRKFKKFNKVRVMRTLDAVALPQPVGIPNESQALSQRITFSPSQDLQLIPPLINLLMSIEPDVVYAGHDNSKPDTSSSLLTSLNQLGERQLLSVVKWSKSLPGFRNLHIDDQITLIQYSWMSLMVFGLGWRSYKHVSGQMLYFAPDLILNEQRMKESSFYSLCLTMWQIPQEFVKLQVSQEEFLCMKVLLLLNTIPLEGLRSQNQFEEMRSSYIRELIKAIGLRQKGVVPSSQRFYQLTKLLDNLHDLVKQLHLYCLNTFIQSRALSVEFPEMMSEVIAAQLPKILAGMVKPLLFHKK

[2] = target: Carbonic anhydrase 2 (Homo sapiens, UniProt P00918); experiment: DRUGMATRIX: Carbonic Anhydrase II enzyme inhibition (substrate: 4-Nitrophenyl acetate (4-NPA)); type: tissue-based; conditions: erythrocyte; Not Active = under 50% inhibition at 10 µM
[3] = target: Melanocortin receptor 3 (Homo sapiens, UniProt P41968); type: cell membranes, HEK293, Membrane; note: in other assays of this panel Not Active means under 50% inhibition at 10 µM
[4] = DRUGMATRIX: Potassium Channel [KATP] radioligand binding (ligand: [3H] Glyburide); type: cell membranes, Membrane; conditions: hit-t15; Not Active = under 50% inhibition at 10 µM
[5] = DRUGMATRIX: Platelet-Derived Growth Factor (PDGF) radioligand binding (ligand: [125I] PDGF); type: cell-based; conditions: nih3t3; Not Active = under 50% inhibition at 10 µM
[6] = target: Melanocortin receptor 5 (Homo sapiens, UniProt P33032); type: cell membranes, HEK293, Membrane; note: in other assays of this panel Not Active means under 50% inhibition at 10 µM
[7] = target: Cytochrome P450 3A4 (Homo sapiens, UniProt P08684); conditions: bti-tn-5b1-4; note: in other assays of this panel Not Active means under 50% inhibition at 10 µM
Cytochrome P450 3A4, sequence (P08684 whole entry): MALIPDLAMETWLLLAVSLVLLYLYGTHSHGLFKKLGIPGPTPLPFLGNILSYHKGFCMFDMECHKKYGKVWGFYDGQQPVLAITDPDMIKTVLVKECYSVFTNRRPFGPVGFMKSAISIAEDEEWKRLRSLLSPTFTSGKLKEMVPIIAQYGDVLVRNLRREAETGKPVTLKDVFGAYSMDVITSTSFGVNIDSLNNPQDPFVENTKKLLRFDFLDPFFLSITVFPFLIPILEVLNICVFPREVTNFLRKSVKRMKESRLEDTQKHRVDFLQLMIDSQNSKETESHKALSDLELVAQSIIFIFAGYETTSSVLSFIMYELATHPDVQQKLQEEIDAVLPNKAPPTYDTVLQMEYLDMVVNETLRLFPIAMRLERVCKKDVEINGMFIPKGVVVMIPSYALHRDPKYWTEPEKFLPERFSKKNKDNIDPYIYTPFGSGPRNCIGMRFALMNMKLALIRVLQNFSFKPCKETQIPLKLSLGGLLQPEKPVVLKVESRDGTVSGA

Melanocortin receptor 5, sequence (P33032 whole entry): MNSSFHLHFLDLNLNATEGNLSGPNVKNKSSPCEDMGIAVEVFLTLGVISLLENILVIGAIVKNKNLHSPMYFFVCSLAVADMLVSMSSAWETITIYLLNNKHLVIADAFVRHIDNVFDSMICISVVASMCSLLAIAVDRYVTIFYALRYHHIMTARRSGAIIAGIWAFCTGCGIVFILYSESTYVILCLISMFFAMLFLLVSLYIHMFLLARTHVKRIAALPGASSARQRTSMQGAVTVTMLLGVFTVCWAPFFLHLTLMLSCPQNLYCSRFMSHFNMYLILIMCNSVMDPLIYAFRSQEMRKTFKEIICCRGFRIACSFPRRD
Melanocortin receptor 3, sequence (P41968 whole entry): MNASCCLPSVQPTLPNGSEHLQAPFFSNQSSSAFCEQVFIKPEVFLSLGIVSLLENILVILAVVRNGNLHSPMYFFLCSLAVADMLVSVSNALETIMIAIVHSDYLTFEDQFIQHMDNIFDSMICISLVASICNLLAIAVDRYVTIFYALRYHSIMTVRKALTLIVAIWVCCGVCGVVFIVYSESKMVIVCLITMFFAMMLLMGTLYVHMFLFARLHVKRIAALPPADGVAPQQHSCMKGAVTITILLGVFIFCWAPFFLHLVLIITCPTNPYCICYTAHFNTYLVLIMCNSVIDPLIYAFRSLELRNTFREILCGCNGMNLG

| SMILES | IC50 [1] | IC50 [2] | IC50 ([3]; read-out: IC50) [µM] | Ki ([3]; read-out: Ki) [µM] | IC50 [4] | Ki [4] | IC50 [5] | Ki [5] | IC50 ([6]; hek293) | IC50 ([3]; hek293) | IC50 [7] | Ki [7] | IC50 ([1]; read-out: IC50) [µM] | Ki ([1]; read-out: Ki) [µM] | IC50 ([6]; read-out: IC50) [µM] | Ki ([6]; read-out: Ki) [µM] |
| --- | --- | --- | --- | --- | --- | --- | --- | --- | --- | --- | --- | --- | --- | --- | --- | --- |
| Cc1c(C)c2c(c(C)c1O)CCC(C)(CN1CCN(c3cc(N4CCCC4)nc(N4CCCC4)n3)CC1)O2 (stereo not drawn) | Not Active | Not Active | 17.3 | 15.1 | Not Active | Not Active | Not Active | Not Active | Not Active | – | – | – | – | – | – | – |
| COc1ccc(CCN(C)CCCC(C#N)(c2ccc(OC)c(OC)c2)C(C)C)cc1OC (stereo not drawn) | Not Active | Not Active | – | – | Not Active | Not Active | Not Active | Not Active | Not Active | Not Active | Not Active | Not Active | – | – | – | – |
| CC(C)Cc1ccc([C@@H](C)C(=O)O)cc1 [(R)-IBUPROPHEN] | Not Active | Not Active | – | – | Not Active | Not Active | Not Active | Not Active | Not Active | Not Active | Not Active | Not Active | – | – | – | – |
| CN(C)CCOC(c1ccccc1)c1ccccc1 [DIPHENHYDRAMINE] | Not Active | Not Active | – | – | – | – | – | – | Not Active | Not Active | – | – | – | – | – | – |
| Clc1ccc(COC(Cn2ccnc2)c2ccc(Cl)cc2Cl)cc1 (stereo not drawn) [ECONAZOLE] | – | Not Active | – | – | – | – | – | – | – | – | – | – | 10.2 | 1.33 | 39.5 | 37.1 |
| CCN(CC)CCOc1ccc(/C(=C(/Cl)c2ccccc2)c2ccccc2)cc1 [ENCLOMIPHENE] | Not Active | Not Active | – | – | – | – | – | – | Not Active | Not Active | Not Active | Not Active | – | – | – | – |
| Fc1ccc(C(c2ccc(F)cc2)N2CCN(C/C=C/c3ccccc3)CC2)cc1 [FLUNARIZINE] | Not Active | Not Active | – | – | – | – | – | – | Not Active | Not Active | Not Active | Not Active | – | – | – | – |
| CNCCC(Oc1ccc(C(F)(F)F)cc1)c1ccccc1 (stereo not drawn) [FLUOXETINE] | Not Active | Not Active | – | – | – | – | – | – | Not Active | Not Active | Not Active | Not Active | – | – | – | – |
| Cc1ccc(NC(=O)c2ccc(CN3CCN(C)CC3)cc2)cc1Nc1nccc(-c2cccnc2)n1 [IMATINIB] | Not Active | – | – | – | – | – | – | – | Not Active | Not Active | – | – | – | – | – | – |
| CC(C)Oc1ccc2c(=O)c(-c3ccccc3)coc2c1 [IPRIFLAVONE] | Not Active | Not Active | – | – | Not Active | Not Active | Not Active | Not Active | Not Active | Not Active | Not Active | Not Active | – | – | – | – |
| CC(C)NCC(O)c1ccc(O)c(O)c1 (stereo not drawn) [ISOPROTERENOL] | Not Active | Not Active | – | – | Not Active | Not Active | Not Active | Not Active | Not Active | Not Active | Not Active | Not Active | – | – | – | – |
| CNC1(c2ccccc2Cl)CCCCC1=O (stereo not drawn) [KETAMINE] | Not Active | Not Active | – | – | Not Active | Not Active | Not Active | Not Active | Not Active | Not Active | Not Active | Not Active | – | – | – | – |
| N#Cc1ccc(C(c2ccc(C#N)cc2)n2cncn2)cc1 [LETROZOLE] | Not Active | Not Active | – | – | Not Active | Not Active | Not Active | Not Active | Not Active | Not Active | Not Active | Not Active | – | – | – | – |
| CCN1CCC[C@H]1CNC(=O)c1cc(S(N)(=O)=O)ccc1OC [LEVOSULPIRIDE] | Not Active | – | – | – | Not Active | Not Active | Not Active | Not Active | Not Active | Not Active | Not Active | Not Active | – | – | – | – |
